{
  "source": "patent US8697081B2",
  "about": "“Method of modulating neovascularization” (The Regents of the University of Michigan, priority 2008, dated 2014)",
  "key": {"[1]": {"test_system": "Human umbilical vein endothelial cells", "experiment": "Chromatin organization (GFP-H2B, H3K9me3) and histone H3/H4 acetylation", "assay_type": "cell-based", "details": "3-D culture, VEGF/HGF-stimulated, blebbistatin or nocodazole", "description": "At sites of tissue damage, inflammation or neoplasia, fibrinogen is converted into a 3-D meshwork of fibrin fibrils that serve as a structural support for endothelial cells undergoing neovascularization (Chun et al. 2006. Cell, 125: 577-591; Hiraoka et al. 1998. Cell, 95: 365-377; Schafer and Werner. 2008. Nat. Rev. Mol. Cell Biol., 9: 628-638; Zhou et al. 2008. Genes Dev., 22: 1231-1243). This process can be recapitulated in vitro by embedding serum-supplemented human endothelial cells within a 3-D fibrin gel in the presence of the pro-angiogenic factors, VEGF and HGF. Human umbilical vein endothelial cells were isolated from umbilical cords by perfusion of the umbilical vein with type 3 collagenase (Worthington, Lakewood, N.J.) and cultured in Medium-199 (Invitrogen, Carlsbad, Calif.) with 20% human serum and 50 μg/ml endothelial cell growth supplement (ECGS; BD Biosciences, Franklin Lakes, N.J.). For 3-D culture, endothelial cells were suspended in a solution of thrombin and aprotinin (Sigma, St. Louis, Mo.) and mixed 1:1 with a solution of 6 mg/ml fibrinogen (Calbiochem, Gibbstown, N.J.). Vasculogenesis was triggered by treatment with 100 ng/ml VEGF, 50 ng/ml HGF (Genentech, San Francisco, Calif.). Fibronectin fibrillogenesis was tracked in 3-D by co-culture with human fibronectin (Sigma) labeled with Alexa-594 (Invitrogen).\nYet, multi-lobed nuclei and anomalous nuclear pore complex distributions can be observed in laminopathies, a pleiotropic series of genetic disorders wherein mutations in lamin or emerin impact chromatin organization, histone modifications, and transcriptional activity (Csoka et al., 2004. Aging Cell, 3: 235-243; Dechat et al., 2008. Genes Dev, 22: 832-853; Dillon, 2008. Dev Cell, 15: 182-186; Malhas et al., 2007. J. Cell Biol., 176: 593-603; Mendjan et al., 2006. Mol. Cell, 21: 811-823; Shumaker et al., 2006. Proc. Natl. Acad. Sci. USA, 103: 8703-8708; Tang et al., 2008. J. Cell Sci., 121: 1014-1024). To determine whether VEGF/HGF-dependent changes in nuclear shape similarly affect chromatin structure/function, chromatin packaging was tracked at the single-endothelial cell level by monitoring GFP-tagged histone H2B or pericentromeric constitutive heterochromatin localization. […] heterochromatin localization was visualized by immunostaining for trimethylated lysine 9 of histone H3 (H3K9me3) (Shumaker, supra; Tang, supra).\nHistone acetylation can be regulated by chromatin positioning within the nucleus (Finlan et al., 2008. PLoS Genet, 4: e1000039; Somech et al., 2005. J. Cell Sci., 118: 4017-4025). Thus, the acetylation status of histones H3 and H4 was assessed as functional markers of changes in chromatin organization. […]"}, "[2]": {"test_system": "Human umbilical vein endothelial cells", "experiment": "Cytoskeletal organization (F-actin, β-tubulin, vimentin) and isometric tension/contractile force", "assay_type": "cell-based", "details": "3-D culture, VEGF/HGF-stimulated, blebbistatin or nocodazole", "method": "VEGF/HGF-stimulated endothelial cells were treated with either (a) blebbistatin to inhibit myosin ATPase function, or (b) nocodazole to prevent microtubule assembly under 3-D culture conditions (Salpingidou et al., 2007. J. Cell Biol., 178: 897-904; Zhou et al., supra)."}},
  "data": [
    {"smiles": "Cc1ccc2c(c1)C(=O)C1(O)CCN(c3ccccc3)C1=N2", "note": "(stereo not drawn) [blebbistatin]", "values": [
      {"measurement": "chromatin distribution", "setting": "[1]", "value": "chromatin condensations at the nuclear periphery with increased interchromatin space"},
      {"measurement": "levels of acetylated histones H3 and H4", "setting": "[1]", "value": "decreased levels"},
      {"measurement": "contractile force exerted on the 3-D ECM", "setting": "[2]", "value": "impairing"}
    ]}
  ]
}
